Each structure is given as a SMILES string.

Usually IC50 stands for the concentration at which inhibition is half-maximal.

For the first assay, the target named is T1, GCS (Canis lupus familiaris, UniProt A0A8I3MXG6).
T1 sequence (A0A8I3MXG6 1-394): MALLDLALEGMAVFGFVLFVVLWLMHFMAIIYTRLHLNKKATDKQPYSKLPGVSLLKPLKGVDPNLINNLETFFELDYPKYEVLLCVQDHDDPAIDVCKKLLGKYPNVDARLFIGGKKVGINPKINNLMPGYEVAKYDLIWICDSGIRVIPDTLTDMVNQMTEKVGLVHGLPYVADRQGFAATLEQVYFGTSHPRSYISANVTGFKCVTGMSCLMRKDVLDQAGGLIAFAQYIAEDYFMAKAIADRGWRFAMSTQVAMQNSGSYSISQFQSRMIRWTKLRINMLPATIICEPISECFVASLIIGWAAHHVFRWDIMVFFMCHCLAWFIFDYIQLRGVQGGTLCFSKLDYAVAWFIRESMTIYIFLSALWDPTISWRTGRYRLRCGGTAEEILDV
Nature of the assay: Assay 1: GCS Enzymatic Assay (MDCK cell lysate, C6-NBD-Ceramide, LC/MS). It is filed as biochemical, canine. As to conditions: Table 2; data marked by *. The essentials: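 LC/MS/MS measurement of glucosylceramide and NBD-ceramide after a 1 h, 37 °C reaction with 100 μM UDP-glucose and 10 μM C6-NBD-ceramide gave IC50s or percent inhibition.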
Consider `Cn1ncc2cc(C(=O)C(=O)N[C@H](CN3CCCC3)[C@H](O)c3ccc(OC4CC4)c(Cl)c3)ccc21` [Compound 224, N-((1R,2R)-1-(3-chloro-4-cyclopropoxyphenyl)-1-hydroxy-3-(pyrrolidin-1-yl)propan-2-yl)-2-(1-methyl-1H-indazol-5-yl)-2-oxoacetamide], for which the “% inhibition generated from Assay 1” value is listed as “A* (the compound had a % inhibition of a percent inhibition of greater than or equal to about 50%)”.

On to `O=C(N[C@H](CN1CCCC1)[C@H](O)c1ccc(OC2CC2)c(Cl)c1)C(=O)c1ccc2sc(Cl)cc2c1` [Compound 225, N-((1R,2R)-1-(3-chloro-4-cyclopropoxyphenyl)-1-hydroxy-3-(pyrrolidin-1-yl)propan-2-yl)-2-(2-chlorobenzo[b]thiophen-5-yl)-2-oxoacetamide], for which the “% inhibition generated from Assay 1” value is “B* (the compound had a % inhibition of greater than or equal to about 3% but less than about 50%)”.

`O=C(N[C@H](CN1CCCC1)[C@H](O)c1cc(F)c2c(c1)OCCO2)C(=O)c1csc(-c2ccc(F)cc2)n1` [Compound 226, N-((1R,2R)-1-(8-fluoro-2,3-dihydrobenzo[b][1,4]dioxin-6-yl)-1-hydroxy-3-(pyrrolidin-1-yl)propan-2-yl)-2-(2-(4-fluorophenyl)thiazol-4-yl)-2-oxoacetamide]: the “% inhibition generated from Assay 1” value is on record as “B* (the compound had a % inhibition of greater than or equal to about 3% but less than about 50%)”.

As to `O=C(N[C@H](CN1CCCC1)[C@H](O)c1ccc2c(c1)OCCO2)C(=O)c1csc(-c2ccc(F)cc2)n1` [Compound 229, N-((1R,2R)-1-(2,3-dihydrobenzo[b][1,4]dioxin-6-yl)-1-hydroxy-3-(pyrrolidin-1-yl)propan-2-yl)-2-(2-(4-fluorophenyl)thiazol-4-yl)-2-oxoacetamide], the “% inhibition generated from Assay 1” value was “B* (the compound had a % inhibition of greater than or equal to about 3% but less than about 50%)”. The same measure, in the same setting: as for `O=C(N[C@H](CN1CCCC1)[C@H](O)c1ccc(OC2CC2)c(Cl)c1)C(=O)c1cccc(N2CCCCC2)c1` [Compound 238, N-((2R)-1-(3-chloro-4-cyclopropoxyphenyl)-1-hydroxy-3-(pyrrolidin-1-yl)propan-2-yl)-2-oxo-2-(3-(piperidin-1-yl)phenyl)acetamide], the entry is “B* (the compound had a % inhibition of greater than or equal to about 3% but less than about 50%)”.

Staying with this assay, now noted: Table 2; data without asterisk; read-out: IC50 (nM) generated from Assay 1.
Turning to `O=C(N[C@H](CN1CCC1)[C@H](O)c1cc(F)c2c(c1)OCCO2)C(=O)c1ccc(N2CCCCC2)cc1` [Compound 227, N-((1R,2R)-3-(azetidin-1-yl)-1-(8-fluoro-2,3-dihydrobenzo[b][1,4]dioxin-6-yl)-1-hydroxypropan-2-yl)-2-oxo-2-(4-(piperidin-1-yl)phenyl)acetamide], the IC50 is less than 50 nM. Same read-out and setting: as for `O=C(N[C@H](CN1CCCC1)[C@H](O)c1cc(F)c2c(c1)OCCO2)C(=O)c1ccc(-c2ccccn2)cc1` [Compound 228, N-((1R,2R)-1-(8-fluoro-2,3-dihydrobenzo[b][1,4]dioxin-6-yl)-1-hydroxy-3-(pyrrolidin-1-yl)propan-2-yl)-2-oxo-2-(4-(pyridin-2-yl)phenyl)acetamide], the figure is less than 50 nM.

With `O=C(N[C@H](CN1CCCC1)[C@H](O)c1cc(F)c2c(c1)OCCO2)C(=O)c1ccc(-c2ccc(F)cc2)s1` [Compound 230, N-((1R,2R)-1-(8-fluoro-2,3-dihydrobenzo[b][1,4]dioxin-6-yl)-1-hydroxy-3-(pyrrolidin-1-yl)propan-2-yl)-2-(5-(4-fluorophenyl)thiophen-2-yl)-2-oxoacetamide], the IC50 is less than 50 nM.

As for `O=C(N[C@H](CN1CCCC1)[C@H](O)c1ccc(OC2CC2)c(Cl)c1)C(=O)c1ccc(N2CCCCC2)cc1` [Compound 231, N-((1R,2R)-1-(3-chloro-4-cyclopropoxyphenyl)-1-hydroxy-3-(pyrrolidin-1-yl)propan-2-yl)-2-oxo-2-(4-(piperidin-1-yl)phenyl)acetamide], the IC50 is less than 50 nM. The same measure, in the same setting: for `Cn1ncc2ccc(-c3ccc(C(F)(F)C(=O)N[C@H](CN4CCCC4)[C@H](O)c4ccc(OC5CC5)c(Cl)c4)cc3)cc21` [Compound 232, N-((1R,2R)-1-(3-chloro-4-cyclopropoxyphenyl)-1-hydroxy-3-(pyrrolidin-1-yl)propan-2-yl)-2,2-difluoro-2-(4-(1-methyl-1H-indazol-6-yl)phenyl)acetamide] the value was less than 50 nM; for `O=C(N[C@H](CN1CCCC1)[C@H](O)c1ccc(OC2CC2)c(Cl)c1)C(=O)c1ccc2sccc2c1` [Compound 233, 2-(benzo[b]thiophen-5-yl)-N-((1R,2R)-1-(3-chloro-4-cyclopropoxyphenyl)-1-hydroxy-3-(pyrrolidin-1-yl)propan-2-yl)-2-oxoacetamide], less than 50 nM. The same measure, in the same setting: for `O=C(N[C@H](CN1CCCC1)[C@H](O)c1cc(Cl)c2c(c1)OCCO2)C(=O)c1ccc(-c2ccc(F)cc2)cc1` [Compound 234, N-((1R,2R)-1-(8-chloro-2,3-dihydrobenzo[b][1,4]dioxin-6-yl)-1-hydroxy-3-(pyrrolidin-1-yl)propan-2-yl)-2-(4′-fluoro-[1,1′-biphenyl]-4-yl)-2-oxoacetamide] the value was less than 50 nM; for `Cn1ncc2ccc(-c3ccc(C(F)(F)C(=O)N[C@H](CN4CCCC4)[C@H](O)c4ccc5c(c4)OCCO5)cc3)cc21` [Compound 235, N-((1R,2R)-1-(2,3-dihydrobenzo[b][1,4]dioxin-6-yl)-1-hydroxy-3-(pyrrolidin-1-yl)propan-2-yl)-2,2-difluoro-2-(4-(1-methyl-1H-indazol-6-yl)phenyl)acetamide], less than 50 nM; for `Cn1ncc2ccc(-c3ccc(C(F)(F)C(=O)N[C@H](CN4CCCC4)[C@H](O)c4cc(F)c5c(c4)OCCO5)cc3)cc21` [Compound 236, 2,2-difluoro-N-((1R,2R)-1-(8-fluoro-2,3-dihydrobenzo[b][1,4]dioxin-6-yl)-1-hydroxy-3-(pyrrolidin-1-yl)propan-2-yl)-2-(4-(1-methyl-1H-indazol-6-yl)phenyl)acetamide], less than 50 nM. Same read-out and setting: as for `Cn1cc2ccc(-c3ccc(C(F)(F)C(=O)N[C@H](CN4CCCC4)[C@H](O)c4ccc(OC5CC5)c(Cl)c4)cc3)cc2n1` [Compound 237, N-((1R,2R)-1-(3-chloro-4-cyclopropoxyphenyl)-1-hydroxy-3-(pyrrolidin-1-yl)propan-2-yl)-2,2-difluoro-2-(4-(2-methyl-2H-indazol-6-yl)phenyl)acetamide], the figure is less than 50 nM. On to `O=C(N[C@H](CN1CCCC1)[C@H](O)c1cc(F)c2c(c1)OCCO2)C(F)(F)c1ccc(-c2ccc(F)cc2)s1` [Compound 239, 2,2-difluoro-N-((1R,2R)-1-(8-fluoro-2,3-dihydrobenzo[b][1,4]dioxin-6-yl)-1-hydroxy-3-(pyrrolidin-1-yl)propan-2-yl)-2-(5-(4-fluorophenyl)thiophen-2-yl)acetamide], for which the concentration for half-maximal inhibition (IC50) was less than 50 nM.

Consider `Cn1cc2cc(-c3ccc(C(=O)C(=O)N[C@H](CN4CCCC4)[C@H](O)c4cc(F)c5c(c4)OCCO5)cc3)ccc2n1` [Compound 240, N-((1R,2R)-1-(8-fluoro-2,3-dihydrobenzo[b][1,4]dioxin-6-yl)-1-hydroxy-3-(pyrrolidin-1-yl)propan-2-yl)-2-(4-(2-methyl-2H-indazol-5-yl)phenyl)-2-oxoacetamide], for which the half-inhibitory concentration (IC50) is less than 50 nM.

Source of the values: US10227323B2, “Glucosylceramide synthase inhibitors for the treatment of diseases” (BIOMARIN PHARMACEUTICAL INC., priority 2013, dated 2019).
